Results on 51 compounds are retold here after PubChem BioAssay AID1996.

For orientation: solubility (kinetic) means solubility judged after dilution from a stock solution rather than from solid.

Converted amounts (≈) assume the structure as drawn.

The conditions of this data set: buffer; pH 7.4; 200.0 µM.
Consider `CCn1c(CCCNC(=O)c2ccco2)nc2ccccc21`, for which the solubility (kinetic) worked out at 42.1 µg/mL (≈ 142 µM).

On to `O=C(c1ccc(F)cc1)C1CCN(C(=O)c2c(F)cccc2F)CC1`, for which the kinetic solubility is over 52.1 µg/mL.

For `Cn1nccc1NS(=O)(=O)c1ccc(NC(=O)C(F)(F)F)cc1`, the solubility (kinetic) is over 52.2 µg/mL.

Compound `C=CCSc1nc2sc3c(c2c(=O)n1CC)CCC3` returned a solubility (kinetic) of 0.8 µg/mL (≈ 2.74 µM).

In turn, `Cc1ccc(C(=O)N2C(=O)c3cccc(N)c3C2=O)o1` returned a kinetic solubility of 3.9 µg/mL (≈ 14.4 µM).

`Cc1ccc(NC(=O)COC(=O)[C@@H]2CC(O)CN2S(=O)(=O)c2ccc3c(c2)OCCO3)cc1` (stereo partly specified) registered a kinetic solubility of over 71.5 µg/mL.

As to `COc1ccccc1NC(=O)c1ccc(C(=O)c2ccccc2)o1`, the kinetic solubility was found to be 8.8 µg/mL (≈ 27.4 µM).

`COc1ccc(Cl)c(OC)c1C(=O)NC(=O)Nc1nc(C)nc(C)n1`: the kinetic solubility stood at 51.4 µg/mL (≈ 141 µM).

The compound `Cc1ccc(Sc2ncccc2[N+](=O)[O-])cc1` came in with a kinetic solubility of 2.8 µg/mL (≈ 11.4 µM).

`COc1ccc(NS(=O)(=O)c2cn(C)c(=O)n(C)c2=O)c(OC)c1` showed a solubility (kinetic) of over 53.3 µg/mL.

`O=C(NC(Cc1c[nH]c2ccccc12)C(=O)O)c1ccc2c(c1)OCO2` (stereo unspecified): the kinetic solubility is over 52.9 µg/mL.

`Brc1cccc(Nc2nc(-c3cccnc3)cs2)c1` showed a solubility (kinetic) of under 0.2 µg/mL.

Compound `COc1cc2cc(C(=O)N(C)Cc3ccccc3)[nH]c2cc1OC` yielded a kinetic solubility of 0.7 µg/mL (≈ 2.16 µM).

`Cc1ccc2cc(C)c(SCC(=O)NCC3CCCO3)nc2c1` (stereo unspecified): the solubility (kinetic) stood at 48.2 µg/mL (≈ 146 µM).

`O=C(Nc1nc2ccccc2[nH]1)NC1CCCCC1` returned a kinetic solubility of 1.6 µg/mL (≈ 6.19 µM).

`C1CN(c2nc(N3CCOCC3)nc(N3CCOCC3)n2)CCO1` yielded a kinetic solubility of 20.6 µg/mL (≈ 61.2 µM).

`O=C(COC(=O)c1cnccn1)Nc1cc(S(=O)(=O)N2CCOCC2)ccc1Cl` had a kinetic solubility of over 66.1 µg/mL.

Take `OCCCNc1nc(-c2ccccc2)nc2c1oc1ccccc12`: the kinetic solubility turned out to be 1.3 µg/mL (≈ 4.07 µM).

For the compound `O=C(NC1CCCCC1)N1CCN(c2ccc(Cl)cc2)CC1`, the kinetic solubility amounted to 19.6 µg/mL (≈ 60.9 µM).

For `S=C(Nc1ccc2c(c1)OCCO2)Nc1ccccc1Cl`, the kinetic solubility is over 48.1 µg/mL.

Take `Cc1ccccc1C(=O)NC(=S)NCc1ccccc1`: the solubility (kinetic) was under 0.3 µg/mL.

`Cc1cc(C)c(OCCN(C)C)c(Cl)c1.O=C(O)C(=O)O` showed a solubility (kinetic) of over 47.7 µg/mL.

For `CCOC(=O)c1sc(=S)n(C)c1NC(=O)c1ccc(OC)cc1`, the kinetic solubility was found to be 9.1 µg/mL (≈ 25.8 µM).

In the case of `CCC(C)(C)c1ccc(OCC(=O)Nc2ccncc2)cc1`, the solubility (kinetic) stood at 2.6 µg/mL (≈ 8.71 µM).

`N#CC(C#N)=CN=c1ccn(Cc2ccc(Cl)cc2Cl)cc1` registered a solubility (kinetic) of 1.4 µg/mL (≈ 4.25 µM).

`Cc1ccc(NC(=O)CN2C(=O)C3CC=C(Cl)CC3C2=O)cc1` (stereo unspecified) displayed a solubility (kinetic) of over 49.9 µg/mL.

`CC(=O)C1C(c2ccc(F)cc2)c2c(noc2C)CC1(C)O` (stereo unspecified): the solubility (kinetic) was over 45.5 µg/mL.

In turn, `CCOC(=O)C[n+]1ccc2c([nH]c3ccccc32)c1C.[Br-]` returned a solubility (kinetic) of 49.7 µg/mL.

As for `COc1ccc(CNC(=O)c2cc(=O)c3cc(C)c(C)cc3o2)cc1`, the kinetic solubility was under 0.7 µg/mL.

`CC(=O)Nc1cc2c3c(c1)CCC(=O)N3CCC2` registered a kinetic solubility of over 36.6 µg/mL.

In turn, `CC1(C)Cc2cccc(C(=O)Nc3ccc(F)cc3F)c2O1` came in with a kinetic solubility of 0.7 µg/mL (≈ 2.31 µM).

`CC1CCCC(NC(=O)COC(=O)c2cc3ccccc3oc2=O)C1C` (stereo unspecified) yielded a solubility (kinetic) of 33.3 µg/mL (≈ 93.2 µM).

`CC(=O)Nc1ccc(NC(=O)COC(=O)c2ccccn2)cc1` came in with a kinetic solubility of over 47 µg/mL.

On to `CCCCC1C2C(=O)N(c3ccccc3)C(=O)C2ON1c1ccccc1` (stereo unspecified), for which the solubility (kinetic) is 49.1 µg/mL (≈ 140 µM).

`CCOc1cccc(/C=C/c2ccc3cccc(O)c3n2)c1O` gave a solubility (kinetic) of under 0.7 µg/mL.

Compound `COCC(C)NC(=S)Nc1ccccc1[N+](=O)[O-]` (stereo unspecified) yielded a kinetic solubility of over 40.4 µg/mL.

For the compound `CCCC(=O)Nc1ccc(-c2nc3ncccc3o2)cc1`, the solubility (kinetic) worked out at 2.1 µg/mL (≈ 7.46 µM).

`Cc1cccc(OC(C)C(=O)NC2CCS(=O)(=O)C2)c1C` (stereo unspecified): the solubility (kinetic) is 46.4 µg/mL (≈ 149 µM).

In the case of `COc1ccccc1S(=O)(=O)c1c(C)cc(C)[nH]c1=O`, the solubility (kinetic) is over 44 µg/mL.

As to `N=C1SCC(=O)N1c1ccccc1Cl`, the kinetic solubility is over 34 µg/mL.

`Cc1ccc(C2(c3noc(CN(C)Cc4cccnc4)n3)CCCC2)cc1` displayed a kinetic solubility of 42.1 µg/mL (≈ 116 µM).

As to `CCCc1cc(=O)oc2c(CN3CCN(C)CC3)c(O)ccc12`, the kinetic solubility stood at 45.2 µg/mL (≈ 143 µM).

In the case of `CCCC/C=C1\CCc2c([nH]c3ccccc23)C1=O`, the kinetic solubility is 2 µg/mL (≈ 7.89 µM).

Regarding `O/N=C/c1cc2ccccc2n1Cc1ccccc1F`, the kinetic solubility stood at 0.5 µg/mL (≈ 1.86 µM).

As to `COc1ccc(NC(=O)c2cccnc2N2CCOCC2)cc1`, the solubility (kinetic) is over 47 µg/mL.

As for `COC(=O)c1cc(C)ccc1OCc1ccc([N+](=O)[O-])cc1`, the kinetic solubility is under 0.6 µg/mL.

Regarding `CC(OC(=O)c1cccs1)C(=O)NCCc1ccccc1` (stereo unspecified), the kinetic solubility was over 45.5 µg/mL.

Take `COc1ccccc1CN(C)C(=O)CSCC(=O)Nc1ccccc1F`: the kinetic solubility was over 56.5 µg/mL.

As to `COc1ccc(/C=C2\SC(=Nc3ccccc3OC)NC2=O)cc1`, the solubility (kinetic) is 1.7 µg/mL (≈ 4.99 µM).

The compound `COc1ccc(CNC(=O)COC(=O)CCc2c[nH]c3ccccc23)cc1` displayed a solubility (kinetic) of 44.4 µg/mL (≈ 121 µM).

For the compound `Cc1ccc(C(=O)NCCONC(=O)c2ccc(C)cc2)cc1`, the solubility (kinetic) worked out at 45.6 µg/mL (≈ 146 µM).
